Active and inactive are the calls of the source. The rule behind the calls is not given here. Bounds are passed on as bounds.

Data set [1] concerns HaCaT. In words: Cytotoxicity against human HaCaT cells assessed as LDH level at 2 uM incubated for 4 hrs. The format is cell-based.
Data set [2] has as its system HaCaT. In words: Antihyperproliferative activity against human HaCaT cells after 48 hrs by phase contrast microscopic analysis. The data set is classed as functional, cell-based.
Data set [3] addresses T1, NADPH--cytochrome P450 reductase (Homo sapiens, UniProt P16435).
T1 sequence (P16435 whole entry): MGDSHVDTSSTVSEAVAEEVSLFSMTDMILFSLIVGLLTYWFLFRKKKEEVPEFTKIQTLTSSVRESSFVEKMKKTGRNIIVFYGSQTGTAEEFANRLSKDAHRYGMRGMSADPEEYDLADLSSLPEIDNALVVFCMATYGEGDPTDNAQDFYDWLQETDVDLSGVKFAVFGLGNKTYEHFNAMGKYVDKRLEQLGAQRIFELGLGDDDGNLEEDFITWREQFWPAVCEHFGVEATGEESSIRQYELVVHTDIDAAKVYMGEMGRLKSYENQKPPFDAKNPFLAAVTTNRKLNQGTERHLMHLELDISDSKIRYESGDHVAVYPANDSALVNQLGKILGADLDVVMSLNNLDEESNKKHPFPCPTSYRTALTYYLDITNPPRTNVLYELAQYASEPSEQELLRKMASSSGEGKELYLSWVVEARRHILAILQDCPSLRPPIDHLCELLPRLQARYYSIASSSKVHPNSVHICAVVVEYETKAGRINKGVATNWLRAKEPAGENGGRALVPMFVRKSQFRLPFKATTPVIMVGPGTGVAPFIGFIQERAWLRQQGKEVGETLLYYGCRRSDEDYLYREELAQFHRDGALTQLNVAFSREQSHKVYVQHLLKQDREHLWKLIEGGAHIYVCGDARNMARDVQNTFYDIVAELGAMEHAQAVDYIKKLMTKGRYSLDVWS
As to the kind of experiment: Activity at human recombinant CPR assessed as superoxide generation at 100 umol/ml by spectrophotometric assay.

In data set [4] the test system is HaCaT. In words: Increase in superoxide generation in human HaCaT cells at 5 uM incubated for 18 hrs by DHE-based flow cytometric analysis. The format is functional, cell-based. A general note: In flow cytometry, cells or beads pass a laser one at a time.
For data set [5], the system named is HaCaT. As to the kind of experiment: Increase in superoxide generation in human HaCaT cells at 5 uM incubated for 18 hrs pretreated with 5 umol/L NQO1 inhibitor dicoumarol for 25 mins followed by compound addition by DHE-based flow cytometric analysis. The format is functional, cell-based.
Data set [6] concerns the target NAD(P)H dehydrogenase [quinone] 1 (Homo sapiens) (UniProt P15559). As to the kind of experiment: Activity at human recombinant NQO1 assessed as superoxide generation at 25 umol/ml by spectrophotometric assay.

Chain of NAD(P)H dehydrogenase [quinone] 1 (Homo sapiens) (P15559 whole entry): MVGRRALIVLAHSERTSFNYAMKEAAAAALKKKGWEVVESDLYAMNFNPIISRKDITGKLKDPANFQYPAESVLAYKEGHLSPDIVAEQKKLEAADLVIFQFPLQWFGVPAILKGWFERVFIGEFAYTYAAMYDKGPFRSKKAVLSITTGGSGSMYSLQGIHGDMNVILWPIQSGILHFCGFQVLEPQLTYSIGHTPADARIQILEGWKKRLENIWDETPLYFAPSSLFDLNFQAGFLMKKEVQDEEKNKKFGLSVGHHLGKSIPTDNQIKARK

One may read the IC50 as the point on the concentration scale where inhibition reaches its midpoint. A higher IC50 goes with lower potency. As to `CC(=O)c1cc2c(s1)C(=O)c1c(Br)cccc1C2=O`, in the data set with HaCaT [1], the Activity is reported as 116 mU/ml. In addition, half-maximal inhibition with HaCaT [2] (IC50) required 1500 nM.

In the case of `COC(=O)c1cc2c(s1)C(=O)c1c(Cl)cccc1C2=O`, the Activity in the data set with HaCaT [1] is given as 130 mU/ml. Inhibition in the data set with HaCaT [2] was half-maximal at 900 nM (IC50).

As for `CC(=O)c1cc2c(s1)C(=O)c1c(O)cccc1C2=O`, the Activity in the data set on HaCaT [1] is 319 mU/ml; in data set [3], “Active”. For the same compound, the outcome in the data set on HaCaT [4] and with HaCaT [5] was Active.

Turning to `CCC(=O)c1cc2c(s1)C(=O)c1c(Cl)cccc1C2=O`, in the data set on HaCaT [1], the Activity stood at 116 mU/ml. In addition, in the data set on HaCaT [2], 2750 nM corresponded to half-maximal inhibition (IC50).

Regarding `O=C1c2ccsc2C(=O)c2c1cccc2C(F)(F)F`, the IC50 in the data set on HaCaT [2] is 4850 nM.

`CCOC(=O)c1cc2c(s1)C(=O)c1c(Cl)cccc1C2=O`: the Activity in the data set with HaCaT [1] is listed as 97 mU/ml. The compound also returned an IC50 in the data set with HaCaT [2] of 1220 nM.

As to `CC(=O)c1cc2c(s1)C(=O)c1c(Cl)cccc1C2=O`, the Activity is given as 124 mU/ml with HaCaT [1] and “Active” in data set [3]. For the same compound, the result in the data set with HaCaT [4] and in the data set with HaCaT [5] was Active.

As for `CCN(CC)C(=O)c1cc2c(s1)C(=O)c1c(Cl)cccc1C2=O`, the Activity with HaCaT [1] was found to be 112 mU/ml. The compound also gave an IC50 in the data set with HaCaT [2] of 720 nM.

Turning to `CCc1noc(-c2cc3c(s2)C(=O)c2c(Cl)cccc2C3=O)n1`, the Activity with HaCaT [1] is recorded as 121 mU/ml; in data set [3] it was “Active”. Also, the IC50 in the data set on HaCaT [2] is 590 nM. Moreover, in data set [6], the result was inactive. Besides, the outcome in the data set with HaCaT [4] and in the data set on HaCaT [5] was Active.

Consider `CC(=O)c1cc2c(s1)C(=O)c1ccccc1C2=O`, for which, in the data set on HaCaT [1], the Activity stood at 253 mU/ml.

In turn, `O=C1c2ccsc2C(=O)c2c(I)cccc21` had an IC50 with HaCaT [2] of more than 30000 nM.

Turning to `CCOC(=O)c1cc2c(s1)C(=O)c1c(Br)cccc1C2=O`, the Activity in the data set with HaCaT [1] is reported as 121 mU/ml. Moreover, inhibition in the data set with HaCaT [2] was half-maximal at 1720 nM (IC50).

`O=C1c2ccsc2C(=O)c2c(Br)cccc21` yielded an IC50 in the data set on HaCaT [2] of 14800 nM.

For `O=C(c1cccnc1)c1cc2c(s1)C(=O)c1c(Br)cccc1C2=O`, the IC50 with HaCaT [2] stood at 8630 nM.

As for `O=C1c2ccsc2C(=O)c2c(Cl)cccc21`, in data set [3], the result was Active. Moreover, the outcome in data set [6] was inactive. Besides, the outcome in the data set on HaCaT [4] and with HaCaT [5] was Active.

As to `O=C(c1ccccc1)c1cc2c(s1)C(=O)c1c(Cl)cccc1C2=O`, the Activity in the data set on HaCaT [1] came out at 122 mU/ml. Further, in the data set with HaCaT [2], the IC50 is 1770 nM.

With `O=C(Oc1ccccc1)c1cc2c(s1)C(=O)c1c(Br)cccc1C2=O`, the IC50 with HaCaT [2] stood at 6640 nM.

For the compound `O=C(O)c1cc2c(s1)C(=O)c1c(Br)cccc1C2=O`, the Activity in the data set with HaCaT [1] is 108 mU/ml. Also, in the data set with HaCaT [2], the IC50 is more than 30000 nM.

As to `CCNC(=O)c1cc2c(s1)C(=O)c1c(Cl)cccc1C2=O`, in the data set on HaCaT [1], the Activity turned out to be 109 mU/ml. The compound further returned an IC50 with HaCaT [2] of 1050 nM.

In the case of `O=C(Oc1ccccc1)c1cc2c(s1)C(=O)c1c(Cl)cccc1C2=O`, in the data set on HaCaT [1], the Activity worked out at 97 mU/ml. The IC50 in the data set on HaCaT [2] stood at 10500 nM.

For the compound `O=C(c1cccs1)c1cc2c(s1)C(=O)c1c(Br)cccc1C2=O`, the Activity with HaCaT [1] amounted to 107 mU/ml. In the data set with HaCaT [2], this compound came in with an IC50 of 11900 nM.

As for `O=C(O)c1cc2c(s1)C(=O)c1c(Cl)cccc1C2=O`, the Activity with HaCaT [1] is on record as 112 mU/ml. Also, the IC50 with HaCaT [2] was more than 30000 nM.

In the case of `O=C(c1cccs1)c1cc2c(s1)C(=O)c1c(Cl)cccc1C2=O`, the Activity in the data set on HaCaT [1] is 127 mU/ml. In the data set on HaCaT [2], this compound yielded an IC50 of 1540 nM.

For `O=Cc1cc2c(s1)C(=O)c1c(Br)cccc1C2=O`, in the data set on HaCaT [2], the IC50 was 3820 nM.

Regarding `COC(=O)c1cc2c(s1)C(=O)c1c(Br)cccc1C2=O`, the Activity in the data set on HaCaT [1] was 124 mU/ml. The compound also displayed an IC50 with HaCaT [2] of 2200 nM.

Consider `CCC(=O)c1cc2c(s1)C(=O)c1c(Br)cccc1C2=O`, for which the Activity with HaCaT [1] stood at 113 mU/ml. The compound also displayed an IC50 with HaCaT [2] of 2910 nM.

As to `O=C1c2ccsc2C(=O)c2c(F)cccc21`, the concentration for half-maximal inhibition (IC50) with HaCaT [2] was determined as 8500 nM.

Take `O=C(c1ccccc1)c1cc2c(s1)C(=O)c1c(Br)cccc1C2=O`: the Activity in the data set with HaCaT [1] is reported as 121 mU/ml. Moreover, inhibition with HaCaT [2] was half-maximal at 13200 nM (IC50).

In the case of `O=C(c1cccnc1)c1cc2c(s1)C(=O)c1c(Cl)cccc1C2=O`, the Activity in the data set on HaCaT [1] amounted to 125 mU/ml. For the same compound, it took 570 nM to reach half-maximal inhibition in the data set on HaCaT [2] (IC50).

In the case of `O=C1c2ccsc2C(=O)c2c(O)cccc21`, the result in data set [3] was Active. In addition, the result in the data set with HaCaT [4] and with HaCaT [5] was Active.

Take `O=C1c2cc(-c3nnn[nH]3)sc2C(=O)c2c(Cl)cccc21`: in the data set on HaCaT [1], the Activity stood at 95 mU/ml. In the data set on HaCaT [2], the IC50 is more than 30000 nM.

For `CCc1noc(-c2cc3c(s2)C(=O)c2c(O)cccc2C3=O)n1`, the result in data set [3] was Active. Moreover, the result in the data set with HaCaT [4] and with HaCaT [5] was Active.

As for `O=Cc1cc2c(s1)C(=O)c1c(Cl)cccc1C2=O`, the Activity in the data set on HaCaT [1] was 107 mU/ml. The same compound yielded an IC50 in the data set on HaCaT [2] of 4700 nM.

On to `CC1=CC(=O)c2ccccc2C1=O` [MENADIONE], for which the result in data set [3] was Active.

Consider `O=C(Nc1ccccc1)c1cc2c(s1)C(=O)c1c(Cl)cccc1C2=O`, for which the Activity in the data set with HaCaT [1] is on record as 121 mU/ml. The compound further registered an IC50 in the data set on HaCaT [2] of more than 30000 nM.

Values taken from ChEMBL document CHEMBL3763096, “8-Halo-substituted naphtho[2,3-b]thiophene-4,9-diones as redox-active inhibitors of keratinocyte hyperproliferation with reduced membrane-damaging properties” (Eur J Med Chem, 2016).
